From US20230391760A1, “HETEROCYCLIC GLP-1 AGONISTS” (Gasherbrum Bio, Inc., priority 2020, published 2023) come the findings set out here.

The target of the assay is GLP-1 Receptor (Homo sapiens, UniProt P43220). As to the kind of experiment: GLP-1R agonist cAMP stimulation assay (HEK293/GLP1R/CRE-LUC cells, cAMP dynamic 2 Kit). In kind it is cell-based. To be noted: HEK293/CRE-Luc cell line stably expressing the GLP-1 Receptor, 30 min at 37° C. A digest of the protocol: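 cAMP measured by HTRF competition (d2-labelled cAMP with cryptate antibody, 1 h, room temperature, protected from light). Before that, GLP1R/CRE-Luc HEK293 cells (1000/well) were exposed for 30 min at 37 °C to half-log compound dilutions in DPBS containing IBMX 0.5 mM and BSA 0.1%.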
GLP-1 Receptor, sequence (P43220 24-463, species assumed): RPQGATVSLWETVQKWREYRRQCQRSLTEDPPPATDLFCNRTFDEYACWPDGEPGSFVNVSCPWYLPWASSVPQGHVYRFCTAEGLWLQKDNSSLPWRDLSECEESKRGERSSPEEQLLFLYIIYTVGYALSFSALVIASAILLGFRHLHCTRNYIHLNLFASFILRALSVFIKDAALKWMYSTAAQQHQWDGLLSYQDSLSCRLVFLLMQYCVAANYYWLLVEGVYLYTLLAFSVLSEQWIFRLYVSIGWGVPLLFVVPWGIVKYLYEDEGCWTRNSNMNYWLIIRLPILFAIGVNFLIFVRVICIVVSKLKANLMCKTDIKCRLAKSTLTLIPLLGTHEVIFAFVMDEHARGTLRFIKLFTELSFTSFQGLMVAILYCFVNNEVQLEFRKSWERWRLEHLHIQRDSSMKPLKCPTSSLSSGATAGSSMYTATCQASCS

One may read the EC50 as the concentration that produces a half-maximal response. Higher therefore signals weaker potency. Regarding `O=c1[nH]c(-c2cnc3c(c2)nc(CN2CC=C(c4cccc(OCc5ccc(Cl)cc5F)n4)CC2)n3C[C@@H]2CCO2)no1` [Compound 324a, 3-[2-({6-[(4-chloro-2-fluorophenyl)methoxy]-1′,2′,3′,6′-tetrahydro-[2,4′-bipyridin]-1′-yl}methyl)-3-{[(2S)-oxetan-2-yl]methyl}-3H-imidazo[4,5-b]pyridin-6-yl]-4,5-dihydro-1,2,4-oxadiazol-5-one], the EC50 stood at 110 pM. On to `FC(F)(F)c1nnc(-c2cc3nc(CN4CCC(c5cccc6c5OC[C@@H](c5ccc(Cl)cc5)O6)CC4)n(C[C@@H]4CCO4)c3cn2)[nH]1` [Compound 423a, 4-[(2R)-2-(4-chlorophenyl)-2,3-dihydro-1,4-benzodioxin-5-yl]-1-[(3-{[(2S)-oxetan-2-yl]methyl}-6-[5-(trifluoromethyl)-4H-1,2,4-triazol-3-yl]-3H-imidazo[4,5-c]pyridin-2-yl)methyl]piperidine], for which it took 130 pM to reach a half-maximal effect (EC50).

With `O=C(Nc1ccc2c(c1)nc(CN1CCC(c3cccc(OCc4ccc(Cl)cc4F)n3)CC1)n2C[C@@H]1CCO1)c1ccccn1` [Compound 170a, N-{2-[(4-{6-[(4-chloro-2-fluorophenyl)methoxy]pyridin-2-yl}piperidin-1-yl)methyl]-1-{[(2S)-oxetan-2-yl]methyl}-1H-1,3-benzodiazol-5-yl}pyridine-2-carboxamide], the EC50 was 140 pM. This EC50 and that of the molecule before are within 1.5-fold of each other.

The molecule `O=C(O)CCc1ccc2c(c1)nc(CN1CC=C(c3cccc(OCc4ccc(Cl)cc4F)n3)CC1)n2C[C@@H]1CCO1` [Compound 113a, (S)-3-(2-((6-((4-chloro-2-fluorobenzyl)oxy)-3′,6′-dihydro-[2,4′-bipyridin]-1′(2′H)-yl)methyl)-1-(oxetan-2-ylmethyl)-1H-benzo[d]imidazol-5-yl)propanoic acid] had an EC50 of 38200 pM.

As for `CC1(c2ccc(Cl)cc2F)Oc2cccc(C3CCN(Cc4nc5cc(-c6nnc(C(F)(F)F)[nH]6)cnc5n4C[C@@H]4CCO4)CC3)c2O1` (mixture of isomers) [Compound 224a, 4-[2-(4-chloro-2-fluorophenyl)-2-methyl-2H-1,3-benzodioxol-4-yl]-1-[(3-{[(2S)-oxetan-2-yl]methyl}-6-[5-(trifluoromethyl)-4H-1,2,4-triazol-3-yl]-3H-imidazo[4,5-b]pyridin-2-yl)methyl]piperidine], the concentration giving a half-maximal response (EC50) turned out to be 18 pM. On to `N#Cc1ccc(COc2nc(C3CCN(Cc4nc5cc(-c6nnc(C(F)(F)F)[nH]6)ncc5n4C[C@@H]4CCO4)CC3)ccc2F)c(F)c1` [Compound 485a, 3-fluoro-4-{[(3-fluoro-6-{1-[(3-{[(2S)-oxetan-2-yl]methyl}-6-[5-(trifluoromethyl)-4H-1,2,4-triazol-3-yl]-3H-imidazo[4,5-c]pyridin-2-yl)methyl]piperidin-4-yl}pyridin-2-yl)oxy]methyl}benzonitrile], for which the concentration giving a half-maximal response (EC50) worked out at 9.6 pM. The value for `O=C(Nc1ccc2c(c1)nc(CN1CCC(c3cccc(OCc4ccc(Cl)cc4F)n3)CC1)n2C[C@@H]1CCO1)C1CCS(=O)(=O)CC1` [Compound 156a, N-{2-[(4-{6-[(4-chloro-2-fluorophenyl)methoxy]pyridin-2-yl}piperidin-1-yl)methyl]-1-{[(2S)-oxetan-2-yl]methyl}-1H-1,3-benzodiazol-5-yl}-1,1-dioxo-1λ^6-thiane-4-carboxamide] was 3000 pM; that for `C[C@]1(c2ccc(C#N)cc2F)Oc2cccc(C3CCN(Cc4nc5cc(-c6n[nH]c(C(F)(F)F)n6)ncc5n4C[C@@H]4CCO4)CC3)c2O1` [Compound 342a, 3-fluoro-4-[(2S)-2-methyl-4-{1-[(3-{[(2S)-oxetan-2-yl]methyl}-6-[5-(trifluoromethyl)-4H-1,2,4-triazol-3-yl]-3H-imidazo[4,5-c]pyridin-2-yl)methyl]piperidin-4-yl}-2H-1,3-benzodioxol-2-yl]benzonitrile] was 6.4 pM; that for `C[C@H]1CN(c2cccc(OCc3ccc(Cl)cc3F)n2)CCN1Cc1nc2cc(-c3nnc(C(F)(F)F)[nH]3)nnc2n1C[C@@H]1CCO1` [Compound 519a, (2S)-4-{6-[(4-chloro-2-fluorophenyl)methoxy]pyridin-2-yl}-2-methyl-1-[(7-{[(2S)-oxetan-2-yl]methyl}-3-[5-(trifluoromethyl)-4H-1,2,4-triazol-3-yl]-7H-imidazo[4,5-c]pyridazin-6-yl)methyl]piperazine] was 40 pM.

`CC1(c2ccc(Cl)cn2)Oc2cccc(C3CCN(Cc4nc5cc(-c6nnc(C7CC7)[nH]6)ncc5n4C[C@@H]4CCO4)CC3)c2O1` (stereo partly drawn) [Compound 266a, 5-chloro-2-[4-(1-{[6-(5-cyclopropyl-4H-1,2,4-triazol-3-yl)-3-{[(2S)-oxetan-2-yl]methyl}-3H-imidazo[4,5-c]pyridin-2-yl]methyl}piperidin-4-yl)-2-methyl-2H-1,3-benzodioxol-2-yl]pyridine] returned an EC50 of 94 pM.

In turn, `Cc1cnccc1C(=O)Nc1ccc2c(c1)nc(CN1CCC(c3cccc(OCc4ccc(Cl)cc4F)n3)CC1)n2C[C@@H]1CCO1` [Compound 178a, N-{2-[(4-{6-[(4-chloro-2-fluorophenyl)methoxy]pyridin-2-yl}piperidin-1-yl)methyl]-1-{[(2S)-oxetan-2-yl]methyl}-1H-1,3-benzodiazol-5-yl}-3-methylpyridine-4-carboxamide] returned an EC50 of 570 pM. Under `CC1(c2ccc(Cl)cc2)Oc2cccc(C3CCN(Cc4nc5cc(-c6noc(=O)[nH]6)ncc5n4C[C@@H]4CCO4)CC3)c2O1` (stereo partly drawn) [Compound 347a, 3-[2-({4-[2-(4-chlorophenyl)-2-methyl-2H-1,3-benzodioxol-4-yl]piperidin-1-yl}methyl)-3-{[(2S)-oxetan-2-yl]methyl}-3H-imidazo[4,5-c]pyridin-6-yl]-4,5-dihydro-1,2,4-oxadiazol-5-one] stands 22 pM; under `O=C(Nc1ccc2c(c1)nc(CN1CCC(c3cccc(OCc4ccc(Cl)cc4F)n3)CC1)n2C[C@@H]1CCO1)C1CC12CCC2` (stereo partly drawn) [Compound 193a, N-{2-[(4-{6-[(4-chloro-2-fluorophenyl)methoxy]pyridin-2-yl}piperidin-1-yl)methyl]-1-{[(2S)-oxetan-2-yl]methyl}-1H-1,3-benzodiazol-5-yl}spiro[2.3]hexane-1-carboxamide], 230 pM; under `O=C1OCCN1c1ccc2c(c1)nc(CN1CCC(c3cccc(OCc4ccc(Cl)cc4F)n3)CC1)n2C[C@@H]1CCO1` [Compound 120a, 3-{2-[(4-{6-[(4-chloro-2-fluorophenyl)methoxy]pyridin-2-yl}piperidin-1-yl)methyl]-1-{[(2S)-oxetan-2-yl]methyl}-1H-1,3-benzodiazol-5-yl}-1,3-oxazolidin-2-one], 4000 pM. Take `CC1(c2ccc(Cl)cc2)Oc2cccc(C3CCN(Cc4nc5cc(-c6nnc(C(F)(F)F)[nH]6)ccc5n4C[C@@H]4CCO4)CC3)c2O1` (stereo partly drawn) [Compound 226a, 2-({4-[2-(4-chlorophenyl)-2-methyl-2H-1,3-benzodioxol-4-yl]piperidin-1-yl}methyl)-1-{[(2S)-oxetan-2-yl]methyl}-5-[5-(trifluoromethyl)-4H-1,2,4-triazol-3-yl]-1H-1,3-benzodiazole]: the EC50 was determined as 130 pM. Under `CO[C@@H](C)Cn1c(CN2CCC(c3cccc4c3O[C@@](C)(c3ccc(Cl)cc3F)O4)CC2)nc2cc(-c3nnc(C(F)(F)F)[nH]3)ncc21` [Compound 420a, 4-[(2S)-2-(4-chloro-2-fluorophenyl)-2-methyl-2H-1,3-benzodioxol-4-yl]-1-({3-[(2S)-2-methoxypropyl]-6-[5-(trifluoromethyl)-4H-1,2,4-triazol-3-yl]-3H-imidazo[4,5-c]pyridin-2-yl}methyl)piperidine] stands 210 pM; under `Fc1cc(Cl)ccc1COc1cccc(C2CCN(Cc3nc4cc(-c5cn[nH]n5)ccc4n3C[C@@H]3CCO3)CC2)n1` [Compound 149a, 2-[(4-{6-[(4-chloro-2-fluorophenyl)methoxy]pyridin-2-yl}piperidin-1-yl)methyl]-1-{[(2S)-oxetan-2-yl]methyl}-5-(2H-1,2,3-triazol-4-yl)-1H-1,3-benzodiazole], 4800 pM. For `Cc1ccnn1C(C)C(=O)Nc1ccc2c(c1)nc(CN1CCC(c3cccc(OCc4ccc(Cl)cc4F)n3)CC1)n2C[C@@H]1CCO1` (stereo partly drawn) [Compound 185a, N-{2-[(4-{6-[(4-chloro-2-fluorophenyl)methoxy]pyridin-2-yl}piperidin-1-yl)methyl]-1-{[(2S)-oxetan-2-yl]methyl}-1H-1,3-benzodiazol-5-yl}-2-(5-methyl-1H-pyrazol-1-yl)propanamide], the EC50 turned out to be 5300 pM.

In turn, `Cc1nnc(-c2cc3nc(CN4CCC(c5cccc6c5OC(C)(c5ccc(Cl)cn5)O6)CC4)n(C[C@@H]4CCO4)c3cn2)[nH]1` (stereo partly drawn) [Compound 267a, 5-chloro-2-[2-methyl-4-(1-{[6-(5-methyl-4H-1,2,4-triazol-3-yl)-3-{[(2S)-oxetan-2-yl]methyl}-3H-imidazo[4,5-c]pyridin-2-yl]methyl}piperidin-4-yl)-2H-1,3-benzodioxol-2-yl]pyridine] returned an EC50 of 51 pM. Against the preceding molecule, the EC50 is about 100-fold lower. Under `O=C(Nc1ccc2c(c1)nc(CN1CCC(c3cccc(OCc4ccc(Cl)cc4F)n3)CC1)n2C[C@@H]1CCO1)N1CCC(F)C1` (stereo partly drawn) [Compound 206a, N-{2-[(4-{6-[(4-chloro-2-fluorophenyl)methoxy]pyridin-2-yl}piperidin-1-yl)methyl]-1-{[(2S)-oxetan-2-yl]methyl}-1H-1,3-benzodiazol-5-yl}-3-fluoropyrrolidine-1-carboxamide] stands 780 pM; under `C[C@]1(c2ccc(Cl)cn2)Oc2cccc(C3CCN(Cc4nc5cc(-c6nnn[nH]6)nnc5n4C[C@@H]4CCO4)CC3)c2O1` [Compound 461a, 5-chloro-2-[(2S)-2-methyl-4-{1-[(7-{[(2S)-oxetan-2-yl]methyl}-3-(1H-1,2,3,4-tetrazol-5-yl)-7H-imidazo[4,5-c]pyridazin-6-yl)methyl]piperidin-4-yl}-2H-1,3-benzodioxol-2-yl]pyridine], 230 pM.
